Data reported in patent US20200085895A1, “PUNICALAGIN COMPOSITIONS AND METHODS FOR THE TREATMENT OF DISORDERS ARISING FROM METHYLGLYOXAL-INDUCED DNA DAMAGE” (Verdure Sciences, priority 2018, published 2020).
“Also recorded” adds a separate entry of the source.

Legend:
HaCaT cells [1] = assay: Cell viability of HaCaT cells exposed to test substances (CTG 2.0); assay type: cell-based, human; conditions: 0-200 μM, 24 hours, FIG. 3
Experimental: (§1) HaCaT cells which were derived from human adult keratinocytes were bought from American Type Culture Collection (Manassas, Va., USA). The cells were maintained in DMEM supplemented with 5% FBS at 37° C. under an atmosphere of 5% CO2 and 95% air. The culture medium was replaced every other day.
Cellular viability was assessed using the Cell Titer Glo2.0 (CTG 2.0) one-step assay. Briefly, HaCaT cells were seeded at about 50 000 cells/ml to yield 50-60% confluence in a standard white-walled clear bottom 96-well plate. HaCaT cells were exposed to different concentration of PE (0, 6.25, 12.5, 25, 50, 100, 200 μg/mL), PA (0, 3.13, 6.25, 12.5, 25, 50, 100, 200 μM), EA (0, 3.13, 6.25, 12.5, 25, 50, 100, 200 μM), and UA (0, 3.13, 6.25, 12.5, 25, 50, 100, 200 μM) for 24 hours. Following the pre-determined incubation period of 24 hours, CTG 2.0 was added in a 1:1 ratio with existing media and mixed for 5 minutes on an orbital shaker prior to luminescence measurement (Spectramax M2, Molecular Devices, Sunnyvale, Calif., USA).

HaCaT cells [2] = assay: Transwell assay (cell migration ability); assay type: cell-based, human; conditions: 50 μM pre-treatment 2 hours, 400 μM MGO 24 h; FIG. 9B
Experimental: Cell migration ability was measured by transwell assay. HaCaT cells in 6-well plates were cultured up to about 80-90% confluence. Then cells were pretreated with PE 50 μg/mL, PA 50 μM, EA 50 μM, and UA 50 μM, respectively for 2 hours, then washed with PBS twice. After that, cells were exposed to 400 μM of MGO for 24 h. Then, cells were digested with trypsin and centrifuged at 300 g for 5 min. Then, 2.5×10^5 cell were suspended in 1 ml serum free DMED. 100 μl of serum free DMEM were added into the upper chamber and incubated for 5 minutes, then 600 μl DMEM containing 5% FBS were added to the 24 well plate (lower chamber). After that 300 μl of cell suspension were added into the upper chamber. After 12 h incubation, cells in upper chamber were washed with PBS and fixed with 75% ethanol for 15 minutes. Then cells in upper chamber were stained with Crystal violet for 10 minutes and washed for 5 times. Cells inside the upper chamber were removed by swab. Then, pictures were taken with EVOS Cell Imaging System (Invitrogen, Waltham, Mass., USA). After that stained cells were incubated in 75% ethanol for 15 minutes for decoloration. Then, optical density of the decoloration solution in 570 nm was calculated via Spectra Max M2 spectrometer (Molecular Devices, Sunnyvale, Calif., USA).

HaCaT cells [3] = assay: Reactive oxygen species (ROS) assay, DCFDA; assay type: cell-based, human; conditions: MGO 400 μM 24 h, FIG. 6
Experimental: HaCaT cells were seeded at about 50 000 cells/ml to yield 50-60% confluence in standard white-walled clear bottom 96-well plates and 6-well plates in DMEM. After 12 h incubation cells were pre-treated with concentrations of PE (0, 6.25, 12.5, 25, 50, 100, 200 μg/mL), PA (0, 3.13, 6.25, 12.5, 25, 50, 100, 200 μM), EA (0, 3.13, 6.25, 12.5, 25, 50, 100, 200 μM), and UA (0, 3.13, 6.25, 12.5, 25, 50, 100, 200 μM) for 2 hours. Then, the medium was replaced with DMEM containing 20 μM DCFDA and MGO (400 μM) for 24 h. After incubation, all the wells were washed with PBS twice. Subsequently, the fluorescence signals from 96-well plates were read at excitation and emission wavelengths of 485 and 525 nm, respectively, using a Spectra Max M2 spectrometer (Molecular Devices, Sunnyvale, Calif., USA). Cells images were taken with EVOS Cell Imaging System (Invitrogen, Waltham, Mass., USA) using 6-well plates cells.

HaCaT cells [4] = assay: Alkaline comet assay, MGO-induced DNA damage; assay type: cell-based, human; conditions: for protective effect on MGO induced DNA damage (comet assay, tail DNA): 50 μM pre-treatment 2 hours, MGO 400 μM 24 h, FIG. 8
Experimental: HaCaT cells were seeded at about 100 000 cells/ml to yield 80-90% confluence in standard 6-well plates. […] After incubation, the cells were washed with PBS twice and then treated with MGO (400 μM) for 24 h. After that, comet assay was performed as per the protocol provided by [sequence] (4250-050-K). Briefly, cells were collected and combined with molten LMAgarose at a ratio of 1:10, pipetted onto Comet slides, incubate in Lysis Solution at 4° C. overnight, immerse slides in Alkaline Unwinding Solution for 20 minutes, apply electrophoresis in Alkaline Electrophoresis Solution at 21 volts for 30 minutes, fixed in 75% ethanol for 15 minutes, dry in 37° C. for 15 minutes and then stain in diluted SYBR GOLD, images were taken with EVOS Cell Imaging System (Invitrogen, Waltham, Mass., USA) and analyzed via CASP.

HaCaT cells [5] = assay: Hoechst 33342 staining, MGO-induced DNA damage; assay type: cell-based, human; conditions: 50 μM pre-treatment 2 hours, 400 μM MGO 24 hours; FIG. 7
Experimental: HaCaT cells were seeded at about 50,000 cells/ml to yield 50-60% confluency in a standard 6-well plate. Cells were pre-treated with PE 50 μg/mL, PA 50 μM, EA 50 μM, and UA 50 μM, respectively for 2 hours. Then cells were washed with PBS once and treated with 400 μM of MGO for 24 hours. After that cells were washed with PBS twice and then incubated with 250 μl Hoechst 33342 (1:300 dilute with PBS) at room temperature for 15 minutes. Then cells were fixed with 75% ethanol for 15 minutes, followed by imaging with EVOS Cell Imaging System (Invitrogen, Waltham, Mass., USA).

HaCaT cells [6] = assay: MGO induced cell damage model (CTG 2.0, crystal violet staining); assay type: cell-based, human; conditions: 24 hours
Experimental: as §1
Briefly, HaCaT cells were seeded at about 50000 cells/ml to yield 50-60% confluence in standard white-walled clear bottom 96-well plates and 6-well plates. After 12 h incubation cells were treated with different concentrations of MGO ([…], 200 μM, 300 μM, 400 μM, 500 μM and 600 μM) for 24 hours respectively and use non-treated group as control. Cellular viability was detected using cells in 96-well plates via CTG 2.0. […] At higher concentrations than 400 μM the damaged caused by MGO to the cells was extreme. Morphological analysis was conducted to evaluate cell damage with crystal violet staining method in 6-well plates as per the below mentioned procedure.
Briefly crystal violet staining were carried with protocol provided by sigma. The staining solution was prepared by dissolve 5 g of crystal violet powder into 100 ml 20% ethanol to make. HaCaT cells in 6-well plates were fixed with 75% ethanol 15 minutes in room temperature. Then cells were incubated with staining solution for 10 minutes. After that cells were washed with PBS for 5 times. Subsequently, pictures were taken under EVOS Cell Imaging System (Invitrogen, Waltham, Mass., USA).
Excessive accumulation of MGO is harmful for skin cells, so the effects of MGO on cell viability at various concentrations on HaCaT cells were evaluated first.

9mer ss-DNA = assay: Glycation assay and LC-MS analysis of MGO-induced DNA damage; assay type: biochemical; conditions: FIG. 1
Description: DNA Oligonucleotide Synthesis. Nine-mer single stranded DNA oligonucleotide (9mer ss-DNA) with the sequence 5′-TTTTGTTTT-3′ containing a single guanine base was synthesized by using solid-phase phosphoramidite chemistry as previously described^2 on MerMade-4 DNA synthesizer. The oligonucleotide was purified by using Thermo Scientific DNAPac PA100 Oligonucleotide anion-exchange column (4×250 mm, 13 μm) with two mobile phases. Solvent A was water, and solvent B was 1.5M ammonium acetate in water. The oligonucleotide was characterized by HPLC electrospray ionization (ESI) triple quadrupole-TOF mass spectrometry (MS). The concentration of oligonucleotide was determined by measuring UV absorbance at 260 nm on a NanoDrop spectrophotometer.
Glycation Assay and LC-MS Analysis. […] LC-MS analysis was carried out on AB Sciex triple quadrupole-TOF 4600 mass spectrometer. […]
Statistical Analysis. […] The data between two groups was assessed under the two-tailed Student's t test. p-value<0.05 was considered as statistically significant. […]

HaCaT cells [7] = assay: Protective effect on MGO induced cell damage model (CTG 2.0); assay type: cell-based, human; conditions: 12.5, 25, and 50 μM pre-treatment 2 hours, then 400 μM MGO 24 hours; FIG. 5
Experimental: as §1
Briefly, HaCaT cells were seeded at about 50000 cells/ml to yield 50-60% confluence in standard white-walled clear bottom 96-well plates and 6-well plates. After 12 h incubation cells were pre-treated with different concentrations of PE (0, 6.25, 12.5, 25, 50, 100, 200 μg/mL), PA (0, 3.13, 6.25, 12.5, 25, 50, 100, 200 μM), EA (0, 3.13, 6.25, 12.5, 25, 50, 100, 200 μM), and UA (0, 3.13, 6.25, 12.5, 25, 50, 100, 200 μM) for 2 hours. Then cells were washed with PBS twice and treated with 400 μM MGO for 24 hours. Cellular viability was detected using cells in 96-well plate via CTG 2.0, and cell images were taken with EVOS Cell Imaging System (Invitrogen, Waltham, Mass., USA) using cells in 6-well plates after crystal violet stain.

HaCaT cells [8] = assay: Wound healing model (in vitro scratch healing assay); assay type: cell-based, human; conditions: 50 μM pre-treatment 2 hours, 400 μM MGO 48 h; FIG. 9D, 9E
Experimental: as §1
Wound healing model was constructed with an in vitro scratch healing assay performed as described previously with certain modifications.^4 HaCaT cells in 6-well plates were cultured up to about 80-90% confluence. Then cells were pretreated with PE 50 μg/mL, PA 50 μM, EA 50 μM, and UA 50 μM, respectively for 2 hours. After the treatments, a narrow wound-like gap in the cell monolayer was created with a […] pipette tip in each well. The shedding cells were washed off with PBS and then the images were captured with EVOS Cell Imaging System (Invitrogen, Waltham, Mass., USA). The cells were further exposed to 400 μM MGO for 48 h and the cell images were captured with EVOS Cell Imaging System (Invitrogen, Waltham, Mass., USA). Gap area was analyzed in image J, a software quantifying visualization image data, and the wound healing rate was calculated as follows=[…]/Gap Area(0 h)×100%.

| Compound | cytotoxicity to HaCaT cells (HaCaT cells [1]) | cell migration ability (transwell assay) (HaCaT cells [2]) | production of MGO induced ROS in HaCaT cells, compared to non-treated group (HaCaT cells [3]; 25 and 50 μM pre-treatment 2 hours) | protective effect on MGO induced DNA damage (comet assay, tail DNA) (HaCaT cells [4]) | DNA damage level caused by MGO (Hoechst staining) (HaCaT cells [5]) | effect of MGO on HaCaT cell viability (HaCaT cells [6]; MGO 100-300 μM) | effect of MGO on HaCaT cell viability (HaCaT cells [6]; MGO at 400 μM or higher) | effect of MGO on HaCaT cell viability (HaCaT cells [6]; MGO higher than 400 μM) | percentage of fracture DNA compared to control group (comet assay) (HaCaT cells [4]; MGO 400 μM alone, 24 h) | protective effect against methylglyoxal (MGO)-induced DNA damage (9mer ss-DNA; 200 μM 9mer ss-DNA, 200 μM MGO, pH 7.4, 37° C., 7 days) | activity in reducing DNA damage compared with aminoguanidine (AG) positive control (9mer ss-DNA; equivalent concentration (50 μM)) | cell viability of HaCaT cells exposed to MGO, compared to non-treated group (HaCaT cells [7]) | wound healing process in the presence of MGO (HaCaT cells [8]) | production of MGO induced ROS in HaCaT cells, compared to non-treated group (HaCaT cells [3]; 12.5, 25, and 50 μM pre-treatment 2 hours) | production of MGO induced ROS in HaCaT cells, compared to non-treated group (HaCaT cells [3]; 50 μM pre-treatment 2 hours) |
| --- | --- | --- | --- | --- | --- | --- | --- | --- | --- | --- | --- | --- | --- | --- | --- |
| O=c1oc2cc(O)ccc2c2ccc(O)cc12 [UA, urolithin A] | not cytotoxic | promotive effects | significantly reduced the production of MGO induced ROS | no protective effects | can reduce the DNA damage level |  |  |  |  |  |  |  |  |  |  |
| CC(=O)C=O [MGO, methylglyoxal] |  |  |  |  |  | did not affect the cell viability; also recorded: non-toxic | significant cytotoxicity | extreme; also recorded: extremely cytotoxic | could increase the percentage of fracture DNA |  |  |  |  |  |  |
| O=C1O[C@H]2[C@@H]3OC(=O)c4cc(O)c(O)c(O)c4-c4c(O)c(O)c5oc(=O)c6c(c(O)c(O)c7oc(=O)c4c5c76)-c4c(cc(O)c(O)c4O)C(=O)OC[C@H]3OC(O)[C@@H]2OC(=O)c2cc(O)c(O)c(O)c2-c2c1cc(O)c(O)c2O (mixture of isomers) [PA, punicalagin] |  | promotive effects |  | protective effect | can reduce the DNA damage level |  |  |  |  | protective effect | considerably more active | significantly increased cell viability | can promote the wound healing process | significantly reduced the production of MGO induced ROS |  |
| O=c1oc2c(O)c(O)cc3c(=O)oc4c(O)c(O)cc1c4c23 [EA, ellagic acid] | not cytotoxic | promotive effects |  | no protective effects | can reduce the DNA damage level |  |  |  |  |  |  |  |  |  | significantly reduced the production of MGO induced ROS |
